# Where two headings read alike, the source gives them in different places.
# What was measured:
# [1] = tested on: Escherichia coli 1341-27; assay: MIC and FIC, Nutrient broth (Test 1); format: cell-based; details: for FIC: in 1:1 mixture C
# Description: (§1) Further, in order to observe the degree of synergistic antimicrobial activity, Fractional Inhibitory Concentration (FIC) values and FIC Index were calculated from the determined MIC values according to the following calculation method, respectively.
# (§2) In the case that the combination ratio of a mixture of monosodium salt of 3-(N-acetyl-N-hydroxyamino)propylphosphonic acid and monosodium salt of nocardicin A is m:n (by weight), each of FIC values and FIC indexes was calculated according to the following equations. [formula]
# [2] = tested on: Escherichia coli 1341-35; assay: MIC and FIC, Nutrient broth (Test 1); format: cell-based; details: for FIC: in 1:1 mixture C
# Description: as §1, §2
# [3] = tested on: Klebsiella pneumoniae 1391-2; assay: MIC and FIC, Nutrient broth (Test 1); format: cell-based; details: for FIC: in 1:1 mixture C
# Description: as §1, §2
# [4] = tested on: Klebsiella pneumoniae 1391-3; assay: MIC and FIC, Nutrient broth (Test 1); format: cell-based; details: for FIC: in 1:1 mixture C
# Description: as §1, §2
# [5] = tested on: Klebsiella pneumoniae 1391-5; assay: MIC and FIC, Nutrient broth (Test 1); format: cell-based; details: for FIC: in 1:1 mixture C
# Description: as §1, §2
# [6] = tested on: Pseudomonas aeruginosa 1101-64; assay: MIC and FIC, Nutrient broth (Test 1); format: cell-based; details: for FIC: in 1:1 mixture C
# Description: as §1, §2
# [7] = tested on: Pseudomonas aeruginosa 1101-66; assay: MIC and FIC, Nutrient broth (Test 1); format: cell-based; details: for FIC: in 1:1 mixture C
# Description: as §1, §2
# [8] = tested on: Pseudomonas aeruginosa 1101-67; assay: MIC and FIC, Nutrient broth (Test 1); format: cell-based; details: for FIC: in 1:1 mixture C
# Description: as §1, §2
# [9] = tested on: Pseudomonas aeruginosa 1101-68; assay: MIC and FIC, Nutrient broth (Test 1); format: cell-based; details: for FIC: in 1:1 mixture C
# Description: as §1, §2
# [10] = tested on: Serratia marcescens 1421-5; assay: MIC and FIC, Nutrient broth (Test 1); format: cell-based; details: for FIC: in 1:1 mixture C
# Description: as §1, §2
# [11] = tested on: Klebsiella pneumoniae 1391-1; assay: microbe, parasite or virus in culture; format: cell-based; details: for FIC: in 1:1 mixture C
# Description: as §1, §2
# [12] = tested on: Pseudomonas aeruginosa 1101-63; assay: microbe, parasite or virus in culture; format: cell-based; details: for FIC: in 1:1 mixture C
# Description: as §1, §2
# [13] = tested on: Serratia marcescens 1421-1; assay: microbe, parasite or virus in culture; format: cell-based; details: for FIC: in 1:1 mixture C
# Description: as §1, §2
# [14] = tested on: Serratia marcescens 1421-3; assay: microbe, parasite or virus in culture; format: cell-based; details: for FIC: in 1:1 mixture C
# Description: as §1, §2
# [15] = tested on: Serratia marcescens 1421-4; assay: microbe, parasite or virus in culture; format: cell-based; details: for FIC: in 1:1 mixture C
# Description: as §1, §2
# [16] = tested on: Pseudomonas aeruginosa 1101-5; format: in vivo, mice (ICR-strain male); details: P. aeruginosa 1101-5; for FIC: in 1:1 mixture C, from ED50; for ED50: s.c. 1 h after i.p. inoculation, survival at one week
# Description: (§3) ICR-strain male mice weighing 23-25 g (10 mice per one group) were used. A prescribed amount of the pathogenic bacteria suspended in 5% aqueous mucin suspension (0.5 ml.) was inoculated intraperitoneally into each mouse. One hour after the inoculation, the antibiotics as mentioned in the following table were administered subcutaneously, and then survival of the test mice was measured one week after the infection to determine ED50 value.
# (§4) Incidentally, FIC values and FIC index in this in vivo test also calculated from the determined ED50 values according to the following calculation method.
# (§5) On the basis of the fact that the combination ratio of a mixture of monosodium salt of 3-(N-acetyl-N- hydroxyamino)propylphosphonic acid and monosodium salt of nocardicin A is 1:1 (by weight), each of FIC values and FIC index was calculated according to the following equations.
# (§6) FIC of monosodium salt of 3-(N-acetyl-N-hydroxyamino)propylphosphonic acid=1/2 C'ab/A'o
# (§7) FIC of monosodium salt of nocardicin A=1/2 C'ab/B'o
# (§8) FIC index=1/2 C'ab/A'o+1/2 C'ab/B'o
# [17] = tested on: Pseudomonas aeruginosa 1101-7; format: in vivo, mice (ICR-strain male); details: P. aeruginosa 1101-7; for FIC: in 1:1 mixture C, from ED50; for ED50: s.c. 1 h after i.p. inoculation, survival at one week
# Description: as §3, §4, §5, §6, §7, §8
# [18] = tested on: Klebsiella pneumoniae NCTC 418; assay: MIC and FIC, Nutrient agar (Tests 2, 3); format: cell-based; details: NCTC418, K. pneumoniae NCTC 418, 20 h
# Description: (§9) After the incubation was carried out at 37° C. for 20 hours, MIC values were determined.
# [19] = tested on: Salmonella typhimurium 1406; assay: MIC and FIC, Nutrient agar (Tests 2, 3); format: cell-based; details: Salmonella enterica, 20 h
# [20] = tested on: Serratia marcescens 1421-4; assay: MIC and FIC, Nutrient agar (Tests 2, 3); format: cell-based; details: Serratia marcescens, 14214, 20 h
# [21] = tested on: Proteus mirabilis 1432-75; assay: MIC and FIC, Nutrient agar (Tests 2, 3); format: cell-based; details: Proteus mirabilis, 143275, 20 h
# [22] = tested on: Staphylococcus epidermidis 1601-1; assay: MIC and FIC, Nutrient agar (Tests 2, 3); format: cell-based; details: 16011, S. epidermidis 1601-1, 20 h
# Description: as §9
# [23] = tested on: Enterobacter cloacae 1401-4; assay: MIC and FIC, Nutrient agar (Tests 2, 3); format: cell-based; details: Enterobacter cloacae, 14014; E. cloacae 1401-4; 20 h; read-out: MIC
# [24] = tested on: Citrobacter freundii 35; assay: MIC and FIC, Nutrient agar (Tests 6, 7, 9); format: cell-based; details: Citrobacter freundii, 35, 18 h
# [25] = tested on: Enterobacter aerogenes 7; assay: MIC and FIC, Nutrient agar (Tests 6, 7, 9); format: cell-based; details: Klebsiella aerogenes; E. aerogenes 7; 18 h; read-out: MIC
# Description: (§10) FIC values and FIC Index were calculated in substantially the same manner as described in Test 1.
# [26] = tested on: Staphylococcus aureus 3; assay: MIC and FIC, Nutrient agar (Tests 6, 7); format: cell-based; details: Staphylococcus aureus; S. aureus 3; 18 h; read-out: MIC
# Description: as §10
structure (smiles),measurement,setting,value
"CC(=O)N(O)CCCP(=O)(O)O [A (Table 1), 3-(N-acetyl-N-hydroxyamino)propylphosphonic acid]",FIC,[1]; E. coli 1341-27,0.125
same,MIC,"[1]; Escherichia coli, 134127, 20 h",200 µg/mL
same,FIC,[2]; E. coli 1341-35,0.250
same,MIC,"[2]; Escherichia coli, 134135, 20 h",100 µg/mL
same,FIC,[3]; K. pneumoniae 1391-2,< 0.250
same,MIC,"[3]; Klebsiella pneumoniae, 13912, 20 h",> 800 µg/mL
same,FIC,[4]; K. pneumoniae 1391-3,0.250
same,MIC,"[4]; Klebsiella pneumoniae, 13913, 20 h",800 µg/mL
same,FIC,[5]; K. pneumoniae 1391-5,0.250
same,MIC,"[5]; Klebsiella pneumoniae, 13915, 20 h",400 µg/mL
same,FIC,[6]; P. aeruginosa 1101-64,< 0.031
same,MIC,"[6]; Pseudomonas aeruginosa, 110164, 20 h",> 800 µg/mL
same,FIC,[7]; P. aeruginosa 1101-66,0.125
same,MIC,"[7]; Pseudomonas aeruginosa, 110166, 20 h",200 µg/mL
same,FIC,[8]; P. aeruginosa 1101-67,0.250
same,MIC,"[8]; Pseudomonas aeruginosa, 110167, 20 h",200 µg/mL
same,FIC,[9]; P. aeruginosa 1101-68,0.031
same,MIC,"[9]; Pseudomonas aeruginosa, 110168, 20 h",800 µg/mL
same,FIC,[10]; S. marcescens 1421-5,< 0.016
same,MIC,"[10]; Serratia marcescens, 14215, 20 h",> 800 µg/mL
same,FIC,[11]; K. pneumoniae 1391-1,0.125
same,MIC,"[11]; Klebsiella pneumoniae, 13911, 20 h",400 µg/mL
same,FIC,[12]; P. aeruginosa 1101-63,0.063
same,MIC,"[12]; Pseudomonas aeruginosa, 110163, 20 h",800 µg/mL
same,FIC,[13]; S. marcescens 1421-1,< 0.008
same,MIC,"[13]; Serratia marcescens, 14211, 20 h",> 800 µg/mL
same,FIC,[14]; S. marcescens 1421-3,< 0.063
same,MIC,"[14]; Serratia marcescens, 14213, 20 h",> 800 µg/mL
same,FIC,[15]; S. marcescens 1421-4,< 0.031
same,MIC,"[15]; Serratia marcescens, 14214, 20 h",> 800 µg/mL
same,FIC,[16],< 0.018
same,ED50,[16],> 20 mg/mouse
same,FIC,[17],< 0.063
same,ED50,[17],> 20 mg/mouse
"N[C@H](CCOc1ccc(/C(=N/O)C(=O)N[C@H]2CN([C@@H](C(=O)O)c3ccc(O)cc3)C2=O)cc1)C(=O)O [B (Table 1), nocardicin A]",FIC,[1]; E. coli 1341-27,0.250
same,MIC,"[1]; Escherichia coli, 134127, E. coli 1341-27, 20 h, read-out: MIC",100 µg/mL
same,FIC,[2]; E. coli 1341-35,0.250
same,MIC,"[2]; Escherichia coli, 134135, E. coli 1341-35, 20 h, read-out: MIC",100 µg/mL
same,FIC,[3]; K. pneumoniae 1391-2,0.250
same,MIC,"[3]; Klebsiella pneumoniae, 13912, K. pneumoniae 1391-2, 20 h, read-out: MIC",800 µg/mL
same,FIC,[4]; K. pneumoniae 1391-3,0.250
same,MIC,"[4]; Klebsiella pneumoniae, 13913, K. pneumoniae 1391-3, 20 h, read-out: MIC",800 µg/mL
same,FIC,[5]; K. pneumoniae 1391-5,0.125
same,MIC,"[5]; Klebsiella pneumoniae, 13915, K. pneumoniae 1391-5, 20 h, read-out: MIC",800 µg/mL
same,FIC,[6]; P. aeruginosa 1101-64,0.125
same,MIC,"[6]; Pseudomonas aeruginosa, 110164, P. aeruginosa 1101-64, 20 h, read-out: MIC",200 µg/mL
same,FIC,[7]; P. aeruginosa 1101-66,0.250
same,MIC,"[7]; Pseudomonas aeruginosa, 110166, P. aeruginosa 1101-66, 20 h, read-out: MIC",100 µg/mL
same,FIC,[8]; P. aeruginosa 1101-67,0.250
same,MIC,"[8]; Pseudomonas aeruginosa, 110167, P. aeruginosa 1101-67, 20 h, read-out: MIC",200 µg/mL
same,FIC,[9]; P. aeruginosa 1101-68,0.250
same,MIC,"[9]; Pseudomonas aeruginosa, 110168, P. aeruginosa 1101-68, 20 h, read-out: MIC",100 µg/mL
same,FIC,[10]; S. marcescens 1421-5,0.063
same,MIC,"[10]; Serratia marcescens, 14215, S. marcescens 1421-5, 20 h, read-out: MIC",200 µg/mL
same,FIC,[11]; K. pneumoniae 1391-1,0.063
same,MIC,"[11]; Klebsiella pneumoniae, 13911, K. pneumoniae 1391-1, 20 h, read-out: MIC",800 µg/mL
same,FIC,[12]; P. aeruginosa 1101-63,0.125
same,MIC,"[12]; Pseudomonas aeruginosa, 110163, P. aeruginosa 1101-63, 20 h, read-out: MIC",400 µg/mL
same,FIC,[13]; S. marcescens 1421-1,0.063
same,MIC,"[13]; Serratia marcescens, 14211, S. marcescens 1421-1, 20 h, read-out: MIC",100 µg/mL
same,FIC,[14]; S. marcescens 1421-3,0.125
same,MIC,"[14]; Serratia marcescens, 14213, S. marcescens 1421-3, 20 h, read-out: MIC",400 µg/mL
same,FIC,[15]; S. marcescens 1421-4,0.063
same,MIC,"[15]; Serratia marcescens, 14214, S. marcescens 1421-4, broth, 20 h, read-out: MIC",400 µg/mL
same,MIC,[18],200 µg/mL
same,MIC,"[19]; S. typhimurium 1406, read-out: MIC",25 µg/mL
same,MIC,[20],25 µg/mL
same,MIC,[21],3.13 µg/mL
same,FIC,[16],0.273
same,ED50,[16],1.3 mg/mouse
same,FIC,[17],0.083
same,ED50,[17],15.0 mg/mouse
"CC1(C)S[C@@H]2[C@H](NC(=O)C(C(=O)O)c3ccsc3)C(=O)N2[C@H]1C(=O)O (stereo partly drawn) [B (Table 4), ticarcillin]",MIC,[22],3.13 µg/mL
same,MIC,[18],100 µg/mL
same,MIC,[19]; TYPHIMURIUM,1.56 µg/mL
same,MIC,[20],25 µg/mL
same,MIC,[23],50 µg/mL
same,MIC,[21],0.78 µg/mL
"NC[C@H]1O[C@H](O[C@H]2[C@H](O)[C@@H](O[C@H]3O[C@H](CO)[C@@H](O)[C@H](N)[C@H]3O)[C@H](N)C[C@@H]2N)[C@H](N)C[C@@H]1O [B (Table 9), Tobramycin]",MIC,[24],3.13 µg/mL
same,MIC,[25],6.25 µg/mL
same,MIC,[26],0.39 µg/mL

# From patent publication US4330529A, “Antibacterial composition” (Fujisawa Pharmaceutical Co., Ltd., priority 1979, dated 1982)
